Measurements taken from patent US20100215618A1, “NOVEL COMPOUNDS - 644” (Arrow Therapeutics Limited, priority 2009, published 2010).
Like-named read-outs stand apart in the source and are kept apart here.

How the values were obtained:
[1] = tested on: HCV genotype 1a replicon cells Htat2ANeo; assay: 1a Replicon Assay (cell-based anti-NS5a ELISA); conditions: Hepatitis C virus, 72 h
Method: HCV genotype la replicon cells Htat2ANeo (University of Texas), containing neomycin phosphotransferase fusion protein and EMCV-IRES driven HCV polyprotein with cell culture adaptive mutations, and control cells, Et2AN.
Cells were cultured at 37° C./5% CO2 and split twice a week. G418 at 0.5 mg/ml and Blastocidin at 2 mg/ml were added to the culture medium but not the assay medium.
The culture medium consisted of DMEM with […] glucose and Glutamax (Gibco 61965-026) supplemented with 1× non-essential amino acids (Invitrogen 11140-035), 0.5 mg/ml G418 (Invitrogen 10131-027), 2 mg/ml Blastocidin (PAA) and 10% is Australian foetal calf serum (Invitrogen 10099-141).
Replicon and control cells were trypsinised and counted. Replicon cells were diluted to 90,000 cells/ml and 100 μl of this used to seed columns 2-4, […] and 10-12 of a black, clear bottom 96-well plate for every three compounds to be tested for IC50. Control cells were diluted to 60,000 cells/ml and 100 μl of this used to seed columns 1, 5 and 9 of the plate. Well H1 was left empty as the blank. Plates were then incubated at 37° C./5% CO2 for 24 h.
On the following day compound dilutions were prepared in medium at twice their desired final concentration in a clear round bottomed plate.
Controls and compounds were transferred from the dilution plate to the assay plates (containing the cells) at 100 μl/well in quadruplicate wells, one well containing control cells and 3 wells containing replicon cells.
Exception: no compound was added to row H of the plate and 100 μl of 1% DMSO was added to these instead. Plates were then incubated at 37° C. with 5% CO2 for 72 h. At the end of the incubation time, any reduction in cell viability was assayed and a cell-based enzyme linked immunosorbent assay (ELISA) was performed. The media/compound was removed from all wells and replaced with 100 μl/well serum-free media and 20 μl/well Cell Titre Blue (Promega G8081). Following incubation at 37° C./5% CO2 for 2 h plates were read on a microplate fluorometer (Molecular Devices) using an excitation of 570 nm and an emission of 590 nm The TD50, the concentration of drug required to reduce 50% of Cell Titre Blue relative to the DMSO controls, was calculated by plotting the fluorescence at 590 nm after substraction of background against drug concentration.
The media/Cell Titre Blue was removed and plates washed in PBS and gently tapped dry before addition of 50 μL per well of 75% acetone/25% methanol mixture for 3 minutes. The fixative was then discarded and wells were washed with PBS before addition of 100 μl/well of blocking solution (2% non-fat dry milk and 0.05% Tween-20 in 0.85% NaCl). Plates were then incubated at 37° C. in a shaking incubator for 60 min. Blocking solution was discarded and 50 μl of mouse anti-NS5a antibody (Virostat 1877) at 1:100 dilution in blocking buffer was added to all wells. Plates were incubated at 37° C. in a shaking incubator for 90 min Antibody was then discarded and plates were washed 4 times by immersion in 0.85% NaCl/0.05% Tween-20. After washing plates were tapped dry gently and 50 μl of secondary antibody (Dako P0260 Rabbit anti-mouse horseradish peroxidase) at 1:1000 dilution in blocking buffer was added to the wells. Plates were incubated at 37° C. in a shaking incubator for 60 min. Antibody was discarded and plates were washed 6 times by immersion in 0.85% NaCl/0.05% Tween-20 and once in PBS. Finally, 50 μl of substrate (SigmaFast ortho-phenylene diamine dihydrochloride (OPD)) was added per well and the colorimetric reaction was allowed to proceed in the dark for 5 to 15 minutes depending on the strength or the signal. The reaction was stopped by addition of 25 μl/well of 20% sulphuric acid. Plates were read on the SpectraMax microplate reader at 490 nm fixed wavelength. […]

[2] = tested on: HCV replicon cells Huh 9B (genotype 1b); assay: 1b Replicon Assay (luciferase readout); type: cell-based; conditions: Hepatitis C virus, Huh 9B replicon cells, 72 h, luciferase activity
Method: HCV replicon cells Huh 9B (ReBlikon), containing the firefly luciferase-ubiquitin-neomycin phosphotransferase fusion protein and EMCV-IRES driven HCV polyprotein with cell culture adaptive mutations.
Cells were cultured at 37° C./5% CO2 and split twice a week. G418 at 0.5 mg/ml was added to the culture medium but not the assay medium.
The culture medium consisted of DMEM with […] glucose and Glutamax (Gibco 61965-026) supplemented with 1× non-essential amino acids (Invitrogen 11140-035), 0.5 mg/ml G418 (Invitrogen 10131-027) and 10% Australian foetal calf serum (Invitrogen 10099-141).
Replicon cells were trypsinised and counted. Cells were diluted to 100,000 cells/ml and 100 μl used to seed one opaque white 96-well plate (for the replicon assay) and one flat-bottomed clear plate (for the tox assay) for every five compounds to be tested for IC50. Wells G12 and H12 were left empty in the clear plate as the blank. Plates were then incubated at 37° C./5% CO2 for 24 h.
On the following day compound dilutions were prepared in medium at twice their desired final concentration in a clear round bottomed plate. All dilutions have a final DMSO concentration of 1%.
Controls and compounds were transferred from the dilution plates to the assay plates (containing the cells) at 100 μl/well in duplicate wells.
Exception: no compound was added to wells A1 and A2 of either plate and 100 μl of 1% DMSO was added to these instead. Plates were then incubated at 37° C./5% CO2 for 72 h.
At the end of the incubation time, the cells in the white plate were washed in PBS (100 μL per well) and dried by tapping before addition of 204 per well of lysis buffer (25 mM tris-phosphate, 8 mM MgCl2, 1 mM DTT, 1% Triton X-100, 15% glycerol; pH to 7.8 using KH2PO4 prior to Triton X-100 and glycerol addition). Aliquots of substrate (23.5 mM beetle luciferin (Promega E1603), 26 mM ATP (Sigma O-2060) in […] Tris buffer pH 7.8) were stored at −80° C. Prior to use, required amount of luciferin was thawed and diluted 1:50 in luciferase assay buffer (20 mM Tricine (Sigma T-0377), 1.07 mM magnesium carbonate hydroxide (Sigma M-5671), 0.1 mM EDTA (Sigma E-5134), 2.67 mM MgSO4(BDH 101514Y), 33.3 mM dithiothreitol (Sigma 150460) pH 7.8).
After 5-60 min incubation in lysis buffer at room temperature, a plate was inserted into the luminometer and 100 μl luciferase assay reagent was added by the injector of the luminometer. The signal was measured using a 1 second delay followed by a 4 second measurement programme. The IC50, the concentration of the drug required for reducing the replicon level by 50% in relation to the untreated cell control value, was calculated from the plot of the percentage reduction of the luciferase activity vs. drug concentration.

[3] = read-out: pIC50 1a Replicon (converted)
[4] = read-out: pIC50 1b Replicon (converted)

Compound | IC50 ([1]; read-out: HCV IC50 Elisa 1a) | IC50 [1, 3] | IC50 ([2]; read-out: HCV IC50 1b Replicon) | IC50 [2, 4]
CCN(CC)[C@@H](C(=O)N1CCC[C@H]1c1ncc(-c2cccc(-c3ccc(C(=O)Nc4ccc(CN5CCS(=O)(=O)CC5)cc4)cc3)c2)[nH]1)c1ccccc1 [Example 38, 4-[3-[2-[(2S)-1-[(2R)-2-(diethylamino)-2-phenyl-acetyl]pyrrolidin-2-yl]-1H-imidazol-5-yl]phenyl]-N-[4-[(1,1-dioxo-1,4-thiazinan-4-yl)methyl]phenyl]benzamide] | 314 nM | 316 nM | 2.87 nM | 2.88 nM
CN(C)[C@@H](C(=O)N1CCC[C@H]1c1ncc(-c2cccc(-c3ccc(C(=O)Nc4ccc(CN5CCS(=O)(=O)CC5)cc4)cc3)c2)[nH]1)c1ccccc1 [Example 39, 4-[3-[2-[(2S)-1-[(2R)-2-(dimethylamino)-2-phenyl-acetyl]pyrrolidin-2-yl]-1H-imidazol-5-yl]phenyl]-N-[4-[(1,1-dioxo-1,4-thiazinan-4-yl)methyl]phenyl]benzamide] | 1100 nM | 1100 nM | 4.81 nM | 4.79 nM
CCCS(=O)(=O)N1CCN(Cc2ccc(NC(=O)c3ccc(-c4ccc(-c5cnc([C@@H]6CCCN6C(=O)[C@H](C)NC(=O)OC)[nH]5)cc4)cc3)cc2)CC1 [Example 41, Methyl N-[(1S)-1-methyl-2-oxo-2-[(2S)-2-[5-[4-[4-[[4-[(4-propylsulfonylpiperazin-1-yl)methyl]phenyl]carbamoyl]phenyl]phenyl]-1H-imidazol-2-yl]pyrrolidin-1-yl]ethyl]carbamate] | 47 nM | 46.8 nM | 1.15 nM | 1.15 nM
CCCS(=O)(=O)N1CCN(Cc2ccc(NC(=O)c3ccc(-c4ccc(-c5cnc([C@@H]6CCCN6C(=O)[C@@H](NC(=O)OC)c6ccccc6)[nH]5)cc4)cc3)cc2)CC1 [Example 42, Methyl N-[(1S)-2-oxo-1-phenyl-2-[(2S)-2-[5-[4-[4-[[4-[(4-propylsulfonylpiperazin-1-yl)methyl]phenyl]carbamoyl]phenyl]phenyl]-1H-imidazol-2-yl]pyrrolidin-1-yl]ethyl]carbamate] | 97.4 nM | 97.7 nM | 0.05 nM | 0.0537 nM
CCCS(=O)(=O)N1CCN(Cc2ccc(NC(=O)c3ccc(-c4ccc(-c5cnc([C@@H]6CCCN6C(=O)[C@H](NC(=O)OC)c6ccccc6)[nH]5)cc4)cc3)cc2)CC1 [Example 43, Methyl N-[(1R)-2-oxo-1-phenyl-2-[(2S)-2-[5-[4-[4-[[4-[(4-propylsulfonylpiperazin-1-yl)methyl]phenyl]carbamoyl]phenyl]phenyl]-1H-imidazol-2-yl]pyrrolidin-1-yl]ethyl]carbamate] | 77.7 nM | 77.6 nM | 0.05 nM | 0.055 nM
CCCS(=O)(=O)N1CCN(Cc2ccc(NC(=O)c3ccc(-c4ccc(-c5cnc([C@@H]6CCCN6C(=O)[C@@H](c6ccccc6)N(CC)CC)[nH]5)cc4)cc3)cc2)CC1 [Example 44, 4-[4-[2-[(2S)-1-[(2R)-2-(diethylamino)-2-phenyl-acetyl]pyrrolidin-2-yl]-1H-imidazol-5-yl]phenyl]-N-[4-[(4-propylsulfonylpiperazin-1-yl)methyl]phenyl]benzamide] | 50.5 nM | 50.1 nM | 0.01 nM | 0.0145 nM
CCCS(=O)(=O)N1CCN(Cc2ccc(NC(=O)c3ccc(-c4ccc(-c5cnc([C@@H]6CCCN6C(=O)[C@@H](c6ccccc6)N(C)C)[nH]5)cc4)cc3)cc2)CC1 [Example 45, 4-[4-[2-[(2S)-1-[(2R)-2-(dimethylamino)-2-phenyl-acetyl]pyrrolidin-2-yl]-1H-imidazol-5-yl]phenyl]-N-[4-[(4-propylsulfonylpiperazin-1-yl)methyl]phenyl]benzamide] | 79.5 nM | 79.4 nM | 0.03 nM | 0.0263 nM
COC(=O)N[C@H](C(=O)N1CCCC[C@H]1c1ncc(-c2ccc(-c3ccc(C(=O)Nc4ccc(CN5CCS(=O)(=O)CC5)cc4)cc3)cc2)[nH]1)C(C)C [Example 50, methyl N-[(1S)-1-[(2S)-2-[5-[4-[4-[[4-[(1,1-dioxo-1,4-thiazinan-4-yl)methyl]phenyl]carbamoyl]phenyl]phenyl]-1H-imidazol-2-yl]piperidine-1-carbonyl]-2-methyl-propyl]carbamate] | 28.2 nM | 28.2 nM | 2.98 nM | 2.95 nM
COC(=O)N[C@H](C(=O)N1CCCC[C@H]1c1ncc(-c2ccc(-c3ccc(C(=O)Nc4ccc(CN5CCS(=O)(=O)CC5)cc4)cc3)cc2)[nH]1)c1ccccc1 [Example 51, Methyl N-[(1S)-2-[(2S)-2-[5-[4-[4-[[4-[(1,1-dioxo-1,4-thiazinan-4-yl)methyl]phenyl]carbamoyl]phenyl]phenyl]-1H-imidazol-2-yl]-1-piperidyl]-2-oxo-1-phenyl-ethyl]carbamate] | 95 nM | 95.5 nM | 0.79 nM | 0.794 nM
CC(C)(C)OC(=O)N[C@H](C(=O)N1CCCC[C@H]1c1ncc(-c2ccc(-c3ccc(C(=O)Nc4ccc(CN5CCS(=O)(=O)CC5)cc4)cc3)cc2)[nH]1)c1ccccc1 [Example 52, tert-Butyl N-[(1S)-2-[(2S)-2-[5-[4-[4-[[4-[(1,1-dioxo-1,4-thiazinan-4-yl)methyl]phenyl]carbamoyl]phenyl]phenyl]-1H-imidazol-2-yl]-1-piperidyl]-2-oxo-1-phenyl-ethyl]carbamate] | 185 nM | 186 nM | 0.41 nM | 0.407 nM
